Tests used:
[1] = Antiplatelet activity in human platelet rich plasma assessed as inhibition of ADP-induced platelet aggregation relative to AZD-6140; type: functional
P2Y purinoceptor 12 = P2Y purinoceptor 12 (Homo sapiens, UniProt Q9H244); experiment: Inhibition of human P2Y12 receptor expressed in CHO cells
[2] = Volume of distribution at steady state in Sprague-Dawley rat at 2 mg/kg, iv and 5 mg/kg, po; type: ADME, organism-based; settings: in vivo, read-out: Vdss
[3] = Metabolic stability in human microsomes; type: ADME, Microsome
[4] = Clearance in Sprague-Dawley rat at 2 mg/kg, iv and 5 mg/kg, po; type: ADME, organism-based; settings: in vivo
[5] = Antiplatelet activity in human platelet rich plasma assessed as inhibition of ADP-induced platelet aggregation; type: functional
[6] = Effective half life in Sprague-Dawley rat at 2 mg/kg, iv and 5 mg/kg, po; type: ADME, organism-based; settings: in vivo, read-out: t1/2eff (converted)
[7] = Metabolic stability in rat microsomes; type: ADME, Microsome

P2Y purinoceptor 12, sequence (Q9H244 whole entry): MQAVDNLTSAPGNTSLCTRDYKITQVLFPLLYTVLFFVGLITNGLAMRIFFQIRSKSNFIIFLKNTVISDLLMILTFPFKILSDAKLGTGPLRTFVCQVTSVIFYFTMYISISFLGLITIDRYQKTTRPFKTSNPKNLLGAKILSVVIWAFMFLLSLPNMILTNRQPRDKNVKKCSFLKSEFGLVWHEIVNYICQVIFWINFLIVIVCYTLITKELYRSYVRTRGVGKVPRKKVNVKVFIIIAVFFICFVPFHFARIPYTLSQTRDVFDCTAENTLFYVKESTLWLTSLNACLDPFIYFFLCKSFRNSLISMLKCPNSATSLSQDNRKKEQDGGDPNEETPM

SMILES | fold change (FC) [1] | Ki (P2Y purinoceptor 12) [nM] | Vd [2] [L/kg] | Stability [3] | clearance [4] [mL/min/kg] | IC50 [5] [nM] | half-life [6] [min] | Stability [7]
CCCCCOC(=O)N1CCN(C(=O)[C@H](CCC(=O)O)NC(=O)c2cc(N3CCC(C(=O)NCC)CC3)cc(-c3ccccc3)n2)CC1 | 1 | 0.58 | 0.3 | Stable | 11 | 650 | 18 | Stable
CCCCCOC(=O)N1CCN(C(=O)[C@H](CCC(=O)O)NC(=O)c2cc(N3CCN(C(C)=O)CC3)cc(-c3ccccc3)n2)CC1 | 2.7 | 22 | 2.4 | Stable | 70 | 2300 | 24 | Stable
CCCCCOC(=O)N1CCN(C(=O)[C@H](CCC(=O)O)NC(=O)c2cc(N3CCC[C@H](O)C3)cc(-c3ccccc3)n2)CC1 | 3.7 | 18 |  | Stable |  | 2400 |  | Stable
CCCCCOC(=O)N1CCN(C(=O)[C@H](CCC(=O)O)NC(=O)c2cc(N3CCC[C@@H](O)C3)cc(-c3ccccc3)n2)CC1 | 4.9 | 16 |  | Stable |  | 4400 |  | Stable
CCCCCOC(=O)N1CCN(C(=O)[C@H](CCC(=O)O)NC(=O)c2cc(N3CCC(CN)CC3)cc(-c3ccccc3)n2)CC1 | 0.62 | 15 |  | Stable |  | 780 |  | Stable
CCCCCOC(=O)N1CCN(C(=O)[C@H](CCC(=O)O)NC(=O)c2cc(N3CCC(C(=O)NC(C)C)CC3)cc(-c3ccccc3)n2)CC1 | 0.64 | 6 |  | Stable |  | 750 |  | Stable
CCCCCOC(=O)N1CCN(C(=O)[C@H](CCC(=O)O)NC(=O)c2cc(N3CCN(CC(=O)N(CC)CC)CC3)cc(-c3ccccc3)n2)CC1 | 3.2 | 5.9 |  | Stable |  | 2900 |  | Stable
CCCCCOC(=O)N1CCN(C(=O)[C@H](CCC(=O)O)NC(=O)c2cc(N3CCC(CN(CC)CC)CC3)cc(-c3ccccc3)n2)CC1 | 2.7 | 4 |  | Stable |  | 2200 |  | Stable
CCCCCOC(=O)N1CCN(C(=O)[C@H](CCC(=O)O)NC(=O)c2cc(N3CCC(CNC(C)=O)CC3)cc(-c3ccccc3)n2)CC1 | 3.9 | 25 |  | Stable |  | 6800 |  | Stable
CCCCOC(=O)N1CCN(C(=O)[C@H](CCC(=O)O)NC(=O)c2cc(N3CCC(CN4CCCC4)CC3)cc(-c3ccccc3)n2)CC1 | 1 | 1.5 |  | Stable |  | 800 |  | Stable
CCCCCOC(=O)N1CCN(C(=O)C(CCC(=O)O)NC(=O)c2cc(N3CCC(COC)C3)cc(-c3ccccc3)n2)CC1 (mixture of isomers) | 10 | 31 |  | Stable |  | 7300 |  | Stable
CCCCOC(=O)N1CCN(C(=O)[C@H](CCC(=O)O)NC(=O)c2cc(N3CCC(CNC)CC3)cc(-c3ccccc3)n2)CC1 | 1 | 4 |  | Stable |  | 910 |  | Stable
CCCCCOC(=O)N1CCN(C(=O)[C@H](CCC(=O)O)NC(=O)c2cc(N3CCN(C(=O)N(CC)CC)CC3)cc(-c3ccccc3)n2)CC1 | 4.6 | 12 |  | Stable |  | 3200 |  | Stable
CCCCCOC(=O)N1CCN(C(=O)[C@H](CCC(=O)O)NC(=O)c2cc(N3CCN(C(=O)C(C)C)CC3)cc(-c3ccccc3)n2)CC1 | 6.6 | 16 |  | Stable |  | 5000 |  | Stable
CCCCCOC(=O)N1CCN(C(=O)[C@H](CCC(=O)O)NC(=O)c2cc(N3CCCC(N)C3)cc(-c3ccccc3)n2)CC1 (stereo partly specified) | 2.2 | 5.5 |  | Stable |  | 1800 |  | Stable
CCCCCOC(=O)N1CCN(C(=O)[C@H](CCC(=O)O)NC(=O)c2cc(N3CC[C@H](C(=O)N4CCCC4)C3)cc(-c3ccccc3)n2)CC1 | 2.8 | 1.7 |  | Stable |  | 2600 |  | Stable
CCCCCOC(=O)N1CCN(C(=O)[C@H](CCC(=O)O)NC(=O)c2cc(N3CCCC(N4CCCC4)C3)cc(-c3ccccc3)n2)CC1 (stereo partly specified) | 3.3 | 11 |  | Stable |  | 3300 |  | Stable
CCCCCOC(=O)N1CCN(C(=O)[C@H](CCC(=O)O)NC(=O)c2cc(N3CCNCC3)cc(-c3ccccc3)n2)CC1 | 2.3 | 6.5 |  | Stable |  | 1900 |  | Stable

SMILES | fold change (FC) [1] | Ki (P2Y purinoceptor 12) [nM] | Vd [2] [L/kg] | Stability [3] | clearance [4] [mL/min/kg] | IC50 [5] [nM] | half-life [6] [min] | Stability [7]
CCCCCOC(=O)N1CCN(C(=O)[C@H](CCC(=O)O)NC(=O)c2cc(N3CCCC(C(=O)N(CC)CC)C3)cc(-c3ccccc3)n2)CC1 (stereo partly specified) | 4.2 | 26 |  | Stable |  | 7700 |  | Stable
CCCCCOC(=O)N1CCN(C(=O)[C@H](CCC(=O)O)NC(=O)c2cc(N3CCN(CCO)CC3)cc(-c3ccccc3)n2)CC1 | 1.1 | 13 |  | Stable |  | 1800 |  | Stable
CCCCCOC(=O)N1CCN(C(=O)[C@H](CCC(=O)O)NC(=O)c2cc(N3CCN(CC(=O)N(C)C)CC3)cc(-c3ccccc3)n2)CC1 | 1.1 | 4.9 |  | Stable |  | 690 |  | Stable
CCCCCOC(=O)N1CCN(C(=O)[C@H](CCC(=O)O)NC(=O)c2cc(N3CCN(C(=O)CN(C)C)CC3)cc(-c3ccccc3)n2)CC1 | 2.5 | 2.8 |  | Stable |  | 710 |  | Stable
CCCCCOC(=O)N1CCN(C(=O)[C@H](CCC(=O)O)NC(=O)c2cc(N3CCCC(CN4CCCC4=O)C3)cc(-c3ccccc3)n2)CC1 (stereo partly specified) | 3.8 | 10 |  | Stable |  | 2600 |  | Stable
CCCCCOC(=O)N1CCN(C(=O)[C@H](CCC(=O)O)NC(=O)c2cc(N3CC[C@@H](C(=O)N4CCCC4)C3)cc(-c3ccccc3)n2)CC1 | 1.7 | 1.4 |  | Stable |  | 2200 |  | Stable
CCCCCOC(=O)N1CCN(C(=O)[C@H](CCC(=O)O)NC(=O)c2cc(N3CC(CNC)C3)cc(-c3ccccc3)n2)CC1 | 1.9 | 7.1 |  | Stable |  | 1300 |  | Stable
CCCCCOC(=O)N1CCN(C(=O)[C@H](CCC(=O)O)NC(=O)c2cc(N3CCC(CNCC)CC3)cc(-c3ccccc3)n2)CC1 | 1.2 | 1.5 |  | Stable |  | 950 |  | Stable
CCCCCOC(=O)N1CCN(C(=O)[C@H](CCC(=O)O)NC(=O)c2cc(N3CCC(C(=O)NC)CC3)cc(-c3ccccc3)n2)CC1 | 0.86 | 7.9 |  | Stable |  | 1600 |  | Stable
CCCCCOC(=O)N1CCN(C(=O)[C@H](CCC(=O)O)NC(=O)c2cc(N3CCN(C(=O)N4CCCC4)CC3)cc(-c3ccccc3)n2)CC1 | 14 | 10 |  | Stable |  | 6100 |  | Stable
CCCCCOC(=O)N1CCN(C(=O)[C@H](CCC(=O)O)NC(=O)c2cc(N3CCN(CCC)CC3)cc(-c3ccccc3)n2)CC1 | 6.3 | 29 |  | Stable |  | 5000 |  | Stable
CCCCOC(=O)N1CCN(C(=O)[C@H](CCC(=O)O)NC(=O)c2cc(N3CCC(C(=O)N(C)C)CC3)cc(-c3ccccc3)n2)CC1 | 0.53 | 2.6 |  | Stable |  | 630 |  | Stable
CCCCCOC(=O)N1CCN(C(=O)[C@H](CCC(=O)O)NC(=O)c2cc(N3CCC(CN4CCCC4)CC3)cc(-c3ccccc3)n2)CC1 | 0.93 | 1.1 |  | Stable |  | 740 |  | Stable
CCCCCOC(=O)N1CCN(C(=O)[C@H](CCC(=O)O)NC(=O)c2cc(N3CCN(CCCN(C)C)CC3)cc(-c3ccccc3)n2)CC1 | 0.72 | 8.4 |  | Stable |  | 520 |  | Stable
CCCCCOC(=O)N1CCN(C(=O)[C@H](CCC(=O)O)NC(=O)c2cc(N3CC[C@@H](C(=O)N(C)C)C3)cc(-c3ccccc3)n2)CC1 | 3.8 | 24 |  | Stable |  | 3600 |  | Stable
CCCCCOC(=O)N1CCN(C(=O)[C@H](CCC(=O)O)NC(=O)c2cc(N3CCN(CCN)CC3)cc(-c3ccccc3)n2)CC1 | 1.6 | 4.5 |  | Stable |  | 1100 |  | Stable
CCCCCOC(=O)N1CCN(C(=O)C(CCC(=O)O)NC(=O)c2cc(N3CCC(CO)C3)cc(-c3ccccc3)n2)CC1 (mixture of isomers) | 11 | 21 |  | Stable |  | 29000 |  | Stable
